Reference: ChEMBL document CHEMBL6071148, “Synthesis and biological evaluation of novel 3,6- amide and thioamide substituted- 2,3,4,9-tetrahydro-1H-carbazoles for anti-cancer activity” (Eur J Med Chem, 2024)
The source made the active and inactive calls. The rule behind the calls is not given here.

Columns and labels:
A549 [1] = test: Induction of apoptosis in human A549 cells assessed as apoptotic rate at IC50 incubated for 48 hrs by Annexin-V and 7-AAD staining based flow cytometric analysis (reference value: 6.56 +/- 1.17%); format: functional
A549 [2] = test: Inhibition of cell adhesion in human A549 cells assessed as reduction in cell aggregates formation at IC50 incubated for 48 hrs by inverted phase contrast microscopic analysis; format: functional, cell-based
Mitochondrial membrane [3] = test: Disruption of mitochondrial membrane integrity in human MCF7 cells assessed as change in mitochondrial size by TEM analysis; format: cell membranes
Mitochondrial membrane [4] = test: Induction of mitochondrial membrane depolarization in human A549 cells assessed as decrease in ratio of J-aggregates to J-monomer incubated for 24 hrs by JC-1 staining based flow cytometric analysis (reference value: 17.72 +/- 3.94%); format: cell membranes
Mitochondrial membrane [5] = test: Disruption of mitochondrial membrane integrity in human MCF7 cells assessed as change in mitochondrial shape by TEM analysis; format: cell membranes
Mitochondrial membrane [6] = test: Disruption of mitochondrial membrane integrity in human MCF7 cells assessed as disruption of normal mitochondrial distribution by TEM analysis; format: cell membranes
A549 [7] = test: Induction of cell cycle arrest in human A549 cells assessed as accumulation of cells at S phase at IC50 incubated for 48 hrs by PI staining based flow cytometric analysis (reference value: 17.825 +/- 3.70%); format: functional
MCF7 [8] = test: Inhibition of colony formation in human MCF7 cells assessed as reduction in clonogenic capacity incubated for 24 hrs by crystal violet staining based analysis; format: functional, cell-based
HCT-116 = test: Inhibition of colony formation in human HCT-116 cells assessed as reduction in clonogenic capacity incubated for 24 hrs by crystal violet staining based analysis; format: functional, cell-based
Mitochondrial membrane [9] = test: Disruption of mitochondrial membrane integrity in human MCF7 cells assessed as organization of mtDNA nucleoids within cells by TEM analysis; format: cell membranes
MCF7 [10] = test: Induction of DNA damage in human MCF7 cells assessed as gammaH2AX positive cells at IC50 incubated for 48 hrs by PI staining based flow cytometric analysis (reference value: 7.58 +/- 1.23%); format: functional
A549 [11] = test: Antitumor activity against human A549 cells xenografted in chicken embryo chorioallantoic membrane assessed as necrosis at 1.5 to 4.5 uM by H and E staining based analysis; format: functional, cell-based; details: dose 1.5-4.5 µM
Mitochondrial membrane [12] = test: Disruption of mitochondrial membrane integrity in human A549 cells assessed as organization of mtDNA nucleoids within cells by TEM analysis; format: cell membranes
A549 [13] = test: Induction of cell cycle arrest in human A549 cells assessed as accumulation of cells at G2 phase at IC50 incubated for 24 hrs by PI staining based flow cytometric analysis (reference value: 23.45 +/- 1.62%); format: functional
MCF7 [14] = test: Antitumor activity against human MCF7 cells xenografted in chicken embryo chorioallantoic membrane assessed as change in nuclear morphology at 1.5 to 4.5 uM by H and E staining based analysis; format: functional, cell-based; details: dose 1.5-4.5 µM
MCF7 [15] = test: Induction of cell cycle arrest in human MCF7 cells assessed as accumulation of cells at G1 phase at IC50 incubated for 24 hrs by PI staining based flow cytometric analysis relative to control; format: functional
Mitochondrial membrane [16] = test: Induction of mitochondrial membrane depolarization in human A549 cells assessed as increase in mitochondrial fission by measuring appearance of spherical mitochondria by confocal microscopic analysis; format: cell membranes

CC(=S)NC1CCc2[nH]c3ccc(Br)cc3c2C1 (configuration not stated)
Activity (A549 [1]): 42.87% | inhibition (A549 [2]): Active | Activity (Mitochondrial membrane [3]): Active | Activity (Mitochondrial membrane [4]): 8.73 | Activity (Mitochondrial membrane [5]): Active | Activity (Mitochondrial membrane [6]): Active | Activity (A549 [7]): 30.8% | inhibition (MCF7 [8]): Dose-Dependent Effect | inhibition (HCT-116): Dose-Dependent Effect | Activity (Mitochondrial membrane [9]): Active | Activity (MCF7 [10]): 16.78% | Activity (A549 [11]): Active | Activity (Mitochondrial membrane [12]): Active | Activity (A549 [13]): 14.3% | Activity (MCF7 [14]): Active | Activity (MCF7 [15]): 33.7% | Activity (Mitochondrial membrane [16]): Active
